# Assay results reported in patent publication US20020137929A1, “1 - (3-heterocyclylphenyl) isothiourea, -isourea, -guanidine and -amidine herbicidal agents” (Intellectual Property Department, BASF Aktiengesellschaft, priority 1998, published 2002).
# Assays:
# [1] = system: CHEAL (Lambsquarters, Common); test: Preemergence herbicidal evaluation; type: in vivo, Chenopodium album; settings: preemergence, rated 4-5 weeks after treatment, 0-9 scale
# In short: (§1)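 Scores use a 0–9 visual scale covering stand, vigor, malformation, size and chlorosis relative to controls, rated four to five weeks after treatment. Before emergence, soil-planted seeds were sprayed with compound in aqueous acetone at roughly 0.0156–0.500 kg/ha and held in the greenhouse.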
# [2] = system: GLXMAW (Soybean, Williams); test: Postemergence herbicidal evaluation; type: in vivo, Glycine max, (L.) Merr. cv Williams; settings: postemergence
# In short: (§2)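 Two-week-old seedlings sprayed with compound in 50/50 acetone/water plus 0.5% TWEEN 20, at about 0.0156 to 0.500 kg/ha, nozzle at 40 psi. Kept in greenhouse; rated visually 4-5 weeks after treatment on a 0-9 scale versus control, repeat tests averaged.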
# [3] = system: AMBEL (Ragweed, Common); test: Postemergence herbicidal evaluation; type: in vivo, Ambrosia artemisifolia; settings: postemergence
# In short: as §2
# [4] = system: ABUTH (Velvetleaf); test: Postemergence herbicidal evaluation; type: in vivo, Abutilon theophrasti; settings: postemergence
# In short: as §2
# [5] = system: CYPSE (Flatsedge); test: Postemergence weed control under flooded paddy conditions; type: in vivo, Cyperus serotinus; settings: postemergence weeds, rated 3 to 4 weeks after treatment
# In short: (§3)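 Flood-water application, about 0.0313–0.500 kg/ha a.i. in aqueous/acetone 50/50 v/v; water depth 1.5–3 cm throughout. Weeds 3–5 cm, rice 1.5–2.5 leaf. Greenhouse; 0–9 visual rating vs control at 3–4 wk.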
# [6] = system: CYPIR (Rice Flatsedge); test: as above; type: in vivo, Cyperus iria; settings: postemergence weeds, rated 3 to 4 weeks after treatment
# In short: as §3
# [7] = system: ECHCG (Barnyardgrass); test: Postemergence herbicidal evaluation; type: in vivo, Echinochloa crus-galli; settings: postemergence
# In short: as §2
# [8] = system: CHEAL (Lambsquarters, Common); test: Postemergence herbicidal evaluation; type: in vivo, Chenopodium album; settings: postemergence
# In short: as §2
# [9] = system: CYPSE (Flatsedge); test: Preemergence weed control under flooded paddy conditions; type: in vivo, Cyperus serotinus; settings: rated 3-4 weeks after treatment
# In short: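 Flooded-pot preemergence screen with silt loam and seeds in the upper 0.5 cm. Dose about 0.0313 to 0.500 kg/ha, delivered into flood water; visual 0-9 score after 3 to 4 weeks.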
# [10] = system: ZEAMX (Corn, Field); test: Postemergence herbicidal evaluation; type: in vivo, Zea mays; settings: postemergence
# In short: as §2
# [11] = system: ORYSAT (Rice, Tebonnet); test: Postemergence herbicidal evaluation; type: in vivo, Oryza sativa, (L.) Tebonnet; settings: postemergence
# In short: as §2
# [12] = system: GALAP (Galium); test: Preemergence herbicidal evaluation; type: in vivo, Galium aparine; settings: preemergence, rated 4-5 weeks after treatment, 0-9 scale
# In short: as §1
# [13] = system: CASOB (Sicklepod); test: Preemergence herbicidal evaluation; type: in vivo, Cassia obtusifolia; settings: preemergence, rated 4-5 weeks after treatment, 0-9 scale
# In short: as §1
# [14] = system: AMBEL (Ragweed, Common); test: Preemergence herbicidal evaluation; type: in vivo, Ambrosia artemisifolia; settings: preemergence, rated 4-5 weeks after treatment, 0-9 scale
# In short: as §1
smiles,measurement,setting,value
"C=CCN1C(=O)C(CC(=O)NS(C)(=O)=O)SC1=Nc1cc(-n2c(=O)cc(C(F)(F)F)n(C)c2=O)c(F)cc1Cl (stereo not shown) [Compound 96, 3-Allyl-2-{{2-chloro-5-[3,6-dihydro-3-methyl-2,6-dioxo-4-(trifluoromethyl)-1(2H)-pryimidinyl]-4-fluorophenyl}imino}-N-(methylsulfonyl)-4-oxo-5-thiazolidineacetamide]",CHEAL rating,[1]; 0.0313 kg/ha,2.0
same,CHEAL rating,[1]; 0.0625 kg/ha,2.0
same,CHEAL rating,[1]; 0.1250 kg/ha,3.0
same,CHEAL rating,[1]; 0.2500 kg/ha,9.0
same,CHEAL rating,[1]; 0.5000 kg/ha,9.0
same,GLXMAW herbicidal rating,[2]; rate 0.0156 kg/ha,4.0
same,GLXMAW herbicidal rating,[2]; rate 0.0313 kg/ha,4.5
same,GLXMAW herbicidal rating,[2]; rate 0.0625 kg/ha,4.0
same,GLXMAW herbicidal rating,[2]; rate 0.1250 kg/ha,3.0
same,AMBEL herbicidal rating,[3]; rate 0.0156 kg/ha,3.0
same,AMBEL herbicidal rating,[3]; rate 0.0313 kg/ha,4.0
same,AMBEL herbicidal rating,[3]; rate 0.0625 kg/ha,7.0
same,AMBEL herbicidal rating,[3]; rate 0.1250 kg/ha,7.0
same,ABUTH herbicidal rating,[4]; rate 0.0156 kg/ha,1.0
same,ABUTH herbicidal rating,[4]; rate 0.0313 kg/ha,7.0
same,ABUTH herbicidal rating,[4]; rate 0.0625 kg/ha,9.0
same,ABUTH herbicidal rating,[4]; rate 0.1250 kg/ha,9.0
same,Herbicidal rating CYPSE,[5]; Rate 0.0313 kg/ha,0.0
same,Herbicidal rating CYPSE,[5]; Rate 0.0625 kg/ha,0.0
same,Herbicidal rating CYPSE,[5]; Rate 0.1250 kg/ha,0.0
same,Herbicidal rating CYPSE,[5]; Rate 0.2500 kg/ha,0.0
same,Herbicidal rating CYPIR,[6]; Rate 0.0313 kg/ha,0.0
same,Herbicidal rating CYPIR,[6]; Rate 0.0625 kg/ha,5.0
same,Herbicidal rating CYPIR,[6]; Rate 0.1250 kg/ha,6.0
same,Herbicidal rating CYPIR,[6]; Rate 0.2500 kg/ha,6.0
same,ECHCG herbicidal rating,[7]; rate 0.0156 kg/ha,0.0
same,ECHCG herbicidal rating,[7]; rate 0.0313 kg/ha,0.0
same,ECHCG herbicidal rating,[7]; rate 0.0625 kg/ha,2.0
same,ECHCG herbicidal rating,[7]; rate 0.1250 kg/ha,2.0
same,CHEAL herbicidal rating,[8]; rate 0.0156 kg/ha,2.0
same,CHEAL herbicidal rating,[8]; rate 0.0313 kg/ha,2.0
same,CYPSE herbicidal effect rating,[9]; 0.0313 kg/ha,0.0
same,CYPSE herbicidal effect rating,[9]; 0.0625 kg/ha,0.0
same,CYPSE herbicidal effect rating,[9]; 0.1250 kg/ha,0.0
same,CYPSE herbicidal effect rating,[9]; 0.2500 kg/ha,0.0
same,ZEAMX herbicidal rating,[10]; rate 0.0156 kg/ha,4.5
same,ZEAMX herbicidal rating,[10]; rate 0.0313 kg/ha,4.5
same,ZEAMX herbicidal rating,[10]; rate 0.0625 kg/ha,4.5
same,ZEAMX herbicidal rating,[10]; rate 0.1250 kg/ha,5.0
same,ORYSAT herbicidal rating,[11]; rate 0.0156 kg/ha,2.0
same,ORYSAT herbicidal rating,[11]; rate 0.0313 kg/ha,2.0
same,ORYSAT herbicidal rating,[11]; rate 0.0625 kg/ha,1.5
same,ORYSAT herbicidal rating,[11]; rate 0.1250 kg/ha,2.0
same,GALAP rating,[12]; 0.0313 kg/ha,0.0
same,GALAP rating,[12]; 0.0625 kg/ha,2.0
same,GALAP rating,[12]; 0.1250 kg/ha,2.0
same,GALAP rating,[12]; 0.2500 kg/ha,6.0
same,GALAP rating,[12]; 0.5000 kg/ha,7.0
same,CASOB rating,[13]; 0.0313 kg/ha,0.0
same,CASOB rating,[13]; 0.0625 kg/ha,0.0
same,CASOB rating,[13]; 0.1250 kg/ha,0.0
same,CASOB rating,[13]; 0.2500 kg/ha,4.0
same,CASOB rating,[13]; 0.5000 kg/ha,9.0
same,AMBEL rating,[14]; 0.0313 kg/ha,0.0
same,AMBEL rating,[14]; 0.0625 kg/ha,0.0
same,AMBEL rating,[14]; 0.1250 kg/ha,1.0
same,AMBEL rating,[14]; 0.2500 kg/ha,4.0
same,AMBEL rating,[14]; 0.5000 kg/ha,6.0
